In PMC9294993 (ACS chemical biology, 2022):

Molecular target: KfoC (Escherichia coli, UniProt Q8L0V4)
Test: preparative synthesis, HPLC
Type: biochemical
Conditions: acceptor elongated to CS 7-mer

Chain of KfoC (Q8L0V4 whole entry): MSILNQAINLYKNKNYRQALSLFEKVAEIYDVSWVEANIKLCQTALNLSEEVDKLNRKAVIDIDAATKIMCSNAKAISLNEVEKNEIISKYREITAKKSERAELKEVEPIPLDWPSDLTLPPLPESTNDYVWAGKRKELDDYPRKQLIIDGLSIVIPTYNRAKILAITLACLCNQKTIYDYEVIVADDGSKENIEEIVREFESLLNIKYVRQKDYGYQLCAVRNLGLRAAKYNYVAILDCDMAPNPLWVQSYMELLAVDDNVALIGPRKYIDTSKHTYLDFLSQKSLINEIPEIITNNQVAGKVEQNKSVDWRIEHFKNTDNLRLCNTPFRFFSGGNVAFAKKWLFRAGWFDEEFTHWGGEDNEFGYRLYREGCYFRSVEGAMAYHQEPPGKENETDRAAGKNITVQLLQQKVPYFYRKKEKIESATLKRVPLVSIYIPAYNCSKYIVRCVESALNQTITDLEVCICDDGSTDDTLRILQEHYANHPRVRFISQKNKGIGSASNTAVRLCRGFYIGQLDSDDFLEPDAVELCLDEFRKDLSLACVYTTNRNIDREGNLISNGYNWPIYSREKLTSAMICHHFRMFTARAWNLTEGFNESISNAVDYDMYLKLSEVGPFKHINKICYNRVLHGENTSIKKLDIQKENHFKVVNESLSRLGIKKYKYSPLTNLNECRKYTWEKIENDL

O=C(O)[C@H]1O[C@@H](Oc2ccc([N+](=O)[O-])cc2)[C@H](O)[C@@H](O)[C@@H]1O [4-nitrophenyl-β-D-glucuronide]
preparative synthesis, HPLC: GlcA-pNP was first elongated to heptasaccharide CS 7-mer by KfoC
